Experimental data reported in PubChem BioAssay (NCI).
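A five-concentration, 48-hour dose response in 96-well plates underlies each endpoint, interpolated linearly between surrounding concentrations. Abbreviation: GI50, concentration required for 50% inhibition of growth. TGI: total growth inhibition.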

Assays:
Assay in all cases: NCI tumour cell line growth inhibition, 48 h
[1] = system: OVCAR-5 ovarian
[2] = system: OVCAR-3 ovarian
[3] = system: MALME-3M melanoma
[4] = system: SK-MEL-2 melanoma
[5] = system: IGROV1 ovarian
[6] = system: CAKI-1 renal
[7] = system: OVCAR-8 ovarian
[8] = system: SN12C renal
[9] = system: RXF 393 renal
[10] = system: UACC-62 melanoma
[11] = system: MOLT-4 leukemia
[12] = system: SW-620 colon
[13] = system: MDA-MB-231 breast
[14] = system: MDA-MB-468 breast
[15] = system: T-47D breast
[16] = system: SNB-19 CNS
[17] = system: HOP-92 NSCLC
[18] = system: SK-OV-3 ovarian
[19] = system: NCI-H460 lung
[20] = system: DU-145 prostate
[21] = system: MCF7 breast
[22] = system: UACC-257 melanoma
[23] = system: MDA-MB-435
[24] = system: A549 NSCLC
[25] = system: NCI-H23 lung
[26] = system: SF-295 CNS
[27] = system: A498 renal
[28] = system: HT29 colon
[29] = system: EKVX NSCLC
[30] = system: TK-10 renal
[31] = system: U251 CNS
[32] = system: HCC-2998 colon
[33] = system: RPMI-8226 leukemia
[34] = system: NCI-H226 lung
[35] = system: SNB-75 CNS
[36] = system: HCT-15 colon
[37] = system: K-562 leukemia
[38] = system: SR leukemia
[39] = system: BT-549 breast
[40] = system: HOP-62 NSCLC
[41] = system: SF-539 CNS
[42] = system: SK-MEL-28 melanoma
[43] = system: HL-60(TB) leukemia
[44] = system: ACHN renal
[45] = system: LOX IMVI melanoma
[46] = system: HCT-116 colon
[47] = system: COLO 205 colon
[48] = system: CCRF-CEM leukemia
[49] = system: PC-3 prostate
[50] = system: OVCAR-4 ovarian
[51] = system: KM12 colon
[52] = system: 786-0 renal
[53] = system: UO-31 renal
[54] = system: HS 578T breast
[55] = system: SF-268 CNS
[56] = system: SK-MEL-5 melanoma
[57] = system: NCI/ADR-RES ovarian
[58] = system: M14 melanoma

FC(F)(F)c1cc2c(Cl)ncnc2n1CCN1CCCCC1
GI50 [1]: > 100 µM
TGI [1]: > 100 µM
GI50 [2]: 17.6 µM
TGI [2]: 35.5 µM
GI50 [3]: 19 µM
TGI [3]: 55.4 µM
GI50 [4]: 16.5 µM
TGI [4]: 32.9 µM
GI50 [5]: 2.98 µM
TGI [5]: 10.3 µM
GI50 [6]: 25.3 µM
TGI [6]: > 100 µM
GI50 [7]: 12.5 µM
TGI [7]: 32.8 µM
GI50 [8]: 19.4 µM
TGI [8]: > 100 µM
GI50 [9]: 15.6 µM
TGI [9]: 40.9 µM
GI50 [10]: 12.2 µM
TGI [10]: 30.5 µM
GI50 [11]: 10.5 µM
TGI [11]: 55.2 µM
GI50 [12]: 11.2 µM
TGI [12]: 28.7 µM
GI50 [13]: 5.47 µM
TGI [13]: 19.7 µM
GI50 [14]: 3.02 µM
TGI [14]: 9.43 µM
GI50 [15]: 21.9 µM
TGI [15]: > 100 µM
GI50 [16]: 15.2 µM
TGI [16]: 31.3 µM
GI50 [17]: 19.7 µM
TGI [17]: 53.8 µM
GI50 [18]: 52.3 µM
TGI [18]: > 100 µM
GI50 [19]: 18.3 µM
TGI [19]: 50.6 µM
GI50 [20]: 30.5 µM
TGI [20]: > 100 µM
GI50 [21]: 19.6 µM
TGI [21]: 76.5 µM
GI50 [22]: 11.8 µM
TGI [22]: 30.4 µM
GI50 [23]: 13.1 µM
TGI [23]: 29.9 µM
GI50 [24]: 80.1 µM
TGI [24]: > 100 µM
GI50 [25]: 13.9 µM
TGI [25]: 39.3 µM
GI50 [26]: 22.6 µM
TGI [26]: 86.3 µM
GI50 [27]: > 100 µM
TGI [27]: > 100 µM
GI50 [28]: 21.1 µM
TGI [28]: 81.3 µM
GI50 [29]: 16.3 µM
TGI [29]: 85.5 µM
GI50 [30]: > 100 µM
TGI [30]: > 100 µM
GI50 [31]: 14.1 µM
TGI [31]: 34.9 µM
GI50 [32]: 4.11 µM
TGI [32]: 14.3 µM
GI50 [33]: 31.5 µM
TGI [33]: > 100 µM
GI50 [34]: 60.6 µM
TGI [34]: > 100 µM
GI50 [35]: 10.5 µM
TGI [35]: 22.5 µM
GI50 [36]: 3.16 µM
TGI [36]: 12.8 µM
GI50 [37]: 2.91 µM
TGI [37]: > 100 µM
GI50 [38]: 3.28 µM
TGI [38]: 26.1 µM
GI50 [39]: 15 µM
TGI [39]: 29.8 µM
GI50 [40]: 38.1 µM
TGI [40]: > 100 µM
GI50 [41]: 17.1 µM
TGI [41]: 36.2 µM
GI50 [42]: 16 µM
TGI [42]: 37.7 µM
GI50 [43]: 2.07 µM
TGI [43]: 7.47 µM
GI50 [44]: 6.46 µM
TGI [44]: > 100 µM
GI50 [45]: 1.69 µM
TGI [45]: 3.11 µM
GI50 [46]: 4.86 µM
TGI [46]: 20.3 µM
GI50 [47]: 52.7 µM
TGI [47]: > 100 µM
GI50 [48]: 11 µM
TGI [48]: > 100 µM
GI50 [49]: 15.2 µM
TGI [49]: 47.9 µM
GI50 [50]: 28.5 µM
TGI [50]: > 100 µM
GI50 [51]: 29.8 µM
TGI [51]: > 100 µM
GI50 [52]: 39.8 µM
TGI [52]: > 100 µM
GI50 [53]: 1.74 µM
TGI [53]: 3.58 µM
GI50 [54]: 16.4 µM
TGI [54]: 60 µM
GI50 [55]: 16 µM
TGI [55]: 38.6 µM
GI50 [56]: 14.9 µM
TGI [56]: 31.1 µM
GI50 [57]: 24 µM
TGI [57]: 64.8 µM
GI50 [58]: 12.8 µM
TGI [58]: 33.4 µM
